Results taken from ChEMBL document CHEMBL1201861, “Genomics of Drug Sensitity in Cancer screening data, Wellcome Trust Sanger Institute”.
pIC50: −log10 of the molar value.

Assays:
Test in all cases: cells
CAKI-1 = format: functional, cell-based, Homo sapiens; conditions: Homo sapiens, CAKI-1;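 note: growth inhibition of CAKI-1 cells, measured by a cell viability assay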
Description: SANGER: Inhibition of human CAKI-1 cell growth in a cell viability assay.

HT-29 = format: functional, cell-based, Homo sapiens; conditions: Homo sapiens, HT-29;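 note: growth inhibition of human HT-29 cells, read out by a cell viability assay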
Description: SANGER: Inhibition of human HT-29 cell growth in a cell viability assay.

DMS-273 = format: functional, cell-based, Homo sapiens; conditions: Homo sapiens, DMS-273
Description: SANGER: Inhibition of human DMS-273 cell growth in a cell viability assay.

T84 = format: functional, cell-based, Homo sapiens; conditions: Homo sapiens, T84;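 note: growth inhibition measured with a cell viability readout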
Description: SANGER: Inhibition of human T84 cell growth in a cell viability assay.

SK-MEL-30 = format: functional, cell-based; conditions: Homo sapiens;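 note: growth inhibition of SK-MEL-30 cells, determined with a cell viability assay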
Description: SANGER: Inhibition of human SK-MEL-30 cell growth in a cell viability assay.

HT-144 = format: functional, cell-based, Homo sapiens; conditions: Homo sapiens, HT-144
Description: SANGER: Inhibition of human HT-144 cell growth in a cell viability assay.

TE-1 = format: functional, cell-based, Homo sapiens; conditions: Homo sapiens, TE-1;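 note: growth inhibition of the human TE-1 cell line, read out with a cell viability assay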
Description: SANGER: Inhibition of human TE-1 cell growth in a cell viability assay.

KMOE-2 = format: functional, cell-based; conditions: Homo sapiens;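 note: growth inhibition of human KMOE-2 cells, read out with a cell viability assay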
Description: SANGER: Inhibition of human KMOE-2 cell growth in a cell viability assay.

FTC-133 = format: functional, cell-based, Homo sapiens; conditions: Homo sapiens, FTC-133
SF-539 = format: functional, cell-based, Homo sapiens; conditions: Homo sapiens, SF-539;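 note: Read-out is a cell viability assay, with IC50 reflecting inhibition of cell growth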
Description: SANGER: Inhibition of human SF539 cell growth in a cell viability assay.

RCM-1 = format: functional, cell-based, Homo sapiens; conditions: Homo sapiens, RCM-1;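 note: growth inhibition of the RCM-1 line, determined with a cell viability readout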
Description: SANGER: Inhibition of human RCM-1 cell growth in a cell viability assay.

SH-4 = format: functional, cell-based, Homo sapiens; conditions: Homo sapiens, SH-4;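 note: growth inhibition of SH-4 cells, read out with a cell viability assay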
Description: SANGER: Inhibition of human SH-4 cell growth in a cell viability assay.

KINGS-1 = format: functional, cell-based, Homo sapiens; conditions: Homo sapiens, KINGS-1;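 note: cell viability assay measuring suppression of KINGS-1 cell growth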
Description: SANGER: Inhibition of human KINGS-1 cell growth in a cell viability assay.

DB = format: functional, cell-based; conditions: Homo sapiens
Description: SANGER: Inhibition of human DB cell growth in a cell viability assay.

HCC2157 = format: functional, cell-based; conditions: Homo sapiens;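 note: growth inhibition of the cancer cell line, read out as cell viability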
Description: SANGER: Inhibition of human HCC2157 cell growth in a cell viability assay.

NCI-H1793 = format: functional, cell-based, Homo sapiens; conditions: Homo sapiens, NCI-H1793;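 note: cell growth inhibition, read out by a cell viability assay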
Description: SANGER: Inhibition of human NCI-H1793 cell growth in a cell viability assay.

BB30-HNC = format: functional, cell-based, Homo sapiens; conditions: Homo sapiens, BB30-HNC;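 note: growth inhibition of the cultured cell line, read out by a cell viability assay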
Description: SANGER: Inhibition of human BB30-HNC cell growth in a cell viability assay.

SW1088 = format: functional, cell-based, Homo sapiens; conditions: Homo sapiens, SW1088;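 note: growth inhibition of human SW1088 cells, read out by a cell viability assay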
Description: SANGER: Inhibition of human SW1088 cell growth in a cell viability assay.

HAL-01 = format: functional, cell-based; conditions: Homo sapiens;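 note: growth inhibition of human HAL-01 cells, read out with a cell viability assay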
Description: SANGER: Inhibition of human HAL-01 cell growth in a cell viability assay.

NCI-H1395 = format: functional, cell-based, Homo sapiens; conditions: Homo sapiens, NCI-H1395;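 note: cell viability assay read-out quantifying reduced proliferation of human NCI-H1395 cells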
Description: SANGER: Inhibition of human NCI-H1395 cell growth in a cell viability assay.

HCC 2998 = format: functional, cell-based, Homo sapiens; conditions: Homo sapiens, HCC 2998;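 note: growth inhibition of human HCC2998 cells, measured with a cell viability read-out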
Description: SANGER: Inhibition of human HCC2998 cell growth in a cell viability assay.

RKO = format: functional, cell-based, Homo sapiens; conditions: Homo sapiens, RKO;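 note: growth inhibition of human RKO cells, read out with a cell viability assay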
IGR-1 = format: functional, cell-based, Homo sapiens; conditions: Homo sapiens, IGR-1;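 note: growth inhibition of human IGR-1 cells, read out with a cell viability assay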
Description: SANGER: Inhibition of human IGR-1 cell growth in a cell viability assay.

SAS = format: functional, cell-based, Homo sapiens; conditions: Homo sapiens, SAS;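 note: growth inhibition of SAS cells, read out with a cell viability assay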
SK-MEL-1 = format: functional, cell-based; conditions: Homo sapiens;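 note: growth inhibition of human SK-MEL-1 cells, read out by a cell viability assay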
Description: SANGER: Inhibition of human SK-MEL-1 cell growth in a cell viability assay.

KYSE-510 = format: functional, cell-based, Homo sapiens; conditions: Homo sapiens, KYSE-510;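 note: cell viability readout used to measure how strongly growth of the cell line is suppressed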
Description: SANGER: Inhibition of human KYSE-510 cell growth in a cell viability assay.

LB771-HNC = format: functional, cell-based, Homo sapiens; conditions: Homo sapiens, LB771-HNC;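 note: growth inhibition of LB771-HNC human cells, read out with a cell viability assay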
TE-8 = format: functional, cell-based, Homo sapiens; conditions: Homo sapiens, TE-8;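 note: growth inhibition of TE-8 cells, measured with a cell viability readout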
Description: SANGER: Inhibition of human TE-8 cell growth in a cell viability assay.

SW780 = format: functional, cell-based, Homo sapiens; conditions: Homo sapiens, SW780;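 note: growth inhibition of the cells, read out with a cell viability assay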
Description: SANGER: Inhibition of human SW780 cell growth in a cell viability assay.

RPMI-8226 = format: functional, cell-based; conditions: Homo sapiens
Description: SANGER: Inhibition of human RPMI-8226 cell growth in a cell viability assay.

MDA-MB-231 = format: functional, cell-based, Homo sapiens; conditions: Homo sapiens, MDA-MB-231
Description: SANGER: Inhibition of human MDA-MB-231 cell growth in a cell viability assay.

ATN-1 = format: functional, cell-based; conditions: Homo sapiens;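 note: growth inhibition of human ATN-1 cells, read out with a cell viability assay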
Description: SANGER: Inhibition of human ATN-1 cell growth in a cell viability assay.

LXF-289 cell line = format: functional, cell-based, Homo sapiens; conditions: Homo sapiens, LXF-289
Description: SANGER: Inhibition of human LXF-289 cell growth in a cell viability assay.

NCI-H292 = format: functional, cell-based, Homo sapiens; conditions: Homo sapiens, NCI-H292;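 note: growth inhibition of NCI-H292 cells, read out with a cell viability assay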
Description: SANGER: Inhibition of human NCI-H292 cell growth in a cell viability assay.

TK-10 = format: functional, cell-based, Homo sapiens; conditions: Homo sapiens, TK-10;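 note: growth inhibition of TK-10 cells, read out in a cell viability assay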
Description: SANGER: Inhibition of human TK10 cell growth in a cell viability assay.

SW1783 = format: functional, cell-based; conditions: Homo sapiens;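 note: cell growth inhibition measured with a viability assay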
Description: SANGER: Inhibition of human SW1783 cell growth in a cell viability assay.

NCI-H1155 = format: functional, cell-based; conditions: Homo sapiens;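 note: cell growth inhibition measured by a viability assay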
Description: SANGER: Inhibition of human NCI-H1155 cell growth in a cell viability assay.

KOSC-2 = format: functional, cell-based, Homo sapiens; conditions: Homo sapiens, KOSC-2;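 note: growth inhibition of KOSC-2 cells, read out by a cell viability assay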
L-363 = format: functional, cell-based; conditions: Homo sapiens
Description: SANGER: Inhibition of human L-363 cell growth in a cell viability assay.

ACHN = format: functional, cell-based, Homo sapiens; conditions: Homo sapiens, ACHN;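 note: cell viability read-out used to gauge how strongly growth of human ACHN cells is suppressed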
Description: SANGER: Inhibition of human ACHN cell growth in a cell viability assay.

BB65-RCC = format: functional, cell-based, Homo sapiens; conditions: Homo sapiens, BB65-RCC;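 note: growth inhibition of the cell line, measured with a cell viability assay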
Description: SANGER: Inhibition of human BB65-RCC cell growth in a cell viability assay.

NCI-N87 = format: functional, cell-based, Homo sapiens; conditions: Homo sapiens, NCI-N87;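 note: growth inhibition of human NCI-N87 cells, read out with a cell viability assay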
Description: SANGER: Inhibition of human NCI-N87 cell growth in a cell viability assay.

EOL1 = format: functional, cell-based; conditions: Homo sapiens;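 note: growth inhibition of EoL-1 cells, read out by a cell viability assay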
Description: SANGER: Inhibition of human EoL-1-cell cell growth in a cell viability assay.

MZ1-PC = format: functional, cell-based, Homo sapiens; conditions: Homo sapiens, MZ1-PC;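 note: cell viability assay measuring growth inhibition of human MZ1-PC cells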
Description: SANGER: Inhibition of human MZ1-PC cell growth in a cell viability assay.

RPMI-7951 = format: functional, cell-based, Homo sapiens; conditions: Homo sapiens, RPMI-7951
Description: SANGER: Inhibition of human RPMI-7951 cell growth in a cell viability assay.

U-87 MG = format: functional, cell-based, U-87MG ATCC; conditions: Homo sapiens;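 note: growth inhibition of the cells measured with a viability assay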
Description: SANGER: Inhibition of human U-87-MG cell growth in a cell viability assay.

EFM-19 = format: functional, cell-based, Homo sapiens; conditions: Homo sapiens, EFM-19;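 note: growth inhibition of human EFM-19 cells, measured in a cell viability assay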
Description: SANGER: Inhibition of human EFM-19 cell growth in a cell viability assay.

SW 954 = format: functional, cell-based, Homo sapiens; conditions: Homo sapiens, SW 954;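 note: growth inhibition of SW954 human cancer cells, read out as cell viability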
Description: SANGER: Inhibition of human SW954 cell growth in a cell viability assay.

NTERA-2-cl-D1 = format: functional, cell-based, Homo sapiens; conditions: Homo sapiens, NTERA-2-cl-D1;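 note: inhibition of cell growth, measured with a cell viability assay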
Description: SANGER: Inhibition of human NTERA-S-cl-D1 cell growth in a cell viability assay.

8505C = format: functional, cell-based, Homo sapiens; conditions: Homo sapiens, 8505C
Description: SANGER: Inhibition of human 8505C cell growth in a cell viability assay.

Panc1005 = format: functional, cell-based, Homo sapiens; conditions: Homo sapiens, Panc1005;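 note: growth inhibition of human PANC-10-05 cells, measured by a cell viability assay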
Description: SANGER: Inhibition of human PANC-10-05 cell growth in a cell viability assay.

MZ7-mel = format: functional, cell-based, Homo sapiens; conditions: Homo sapiens, MZ7-mel;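 note: growth inhibition of human MZ7-mel cells, measured by a cell viability assay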
Description: SANGER: Inhibition of human MZ7-mel cell growth in a cell viability assay.

Measured: pIC50

Cc1ccc(Nc2nccc(N(C)c3ccc4c(C)n(C)nc4c3)n2)cc1S(N)(=O)=O [PAZOPANIB]
5.30: DMS-273
< 5.10: CAKI-1 | HT-29 | T84 | SK-MEL-30 | HT-144 | TE-1 | KMOE-2 | FTC-133 | SF-539 | RCM-1 | SH-4 | KINGS-1 | DB | HCC2157 | NCI-H1793 | BB30-HNC | SW1088 | HAL-01 | NCI-H1395 | HCC 2998 | RKO | IGR-1 | SAS | SK-MEL-1 | KYSE-510 | LB771-HNC | SW780 | RPMI-8226 | MDA-MB-231 | ATN-1 | LXF-289 cell line | NCI-H292 | TK-10 | SW1783 | NCI-H1155 | KOSC-2 | L-363 | ACHN | BB65-RCC | NCI-N87 | MZ1-PC | RPMI-7951 | U-87 MG | EFM-19 | SW 954 | NTERA-2-cl-D1 | 8505C | Panc1005 | MZ7-mel
5.21: TE-8
> 7.51: EOL1

CN(c1ncccc1CNc1nc(Nc2ccc3c(c2)CC(=O)N3)ncc1C(F)(F)F)S(C)(=O)=O [PF-00562271]
5.70: SW 954
5.60: MDA-MB-231
5.79: MZ1-PC
< 5.59: CAKI-1 | HT-29 | DMS-273 | T84 | SK-MEL-30 | HT-144 | TE-1 | KMOE-2 | FTC-133 | SF-539 | RCM-1 | SH-4 | KINGS-1 | DB | HCC2157 | NCI-H1793 | BB30-HNC | SW1088 | HAL-01 | NCI-H1395 | HCC 2998 | RKO | IGR-1 | SAS | SK-MEL-1 | KYSE-510 | LB771-HNC | TE-8 | SW780 | RPMI-8226 | ATN-1 | LXF-289 cell line | NCI-H292 | TK-10 | SW1783 | NCI-H1155 | KOSC-2 | L-363 | ACHN | BB65-RCC | NCI-N87 | EOL1 | RPMI-7951 | U-87 MG | EFM-19 | NTERA-2-cl-D1 | 8505C | Panc1005 | MZ7-mel
